# Results reported in US20250332264A1, “GhR-BINDING PEPTIDE AND COMPOSITION COMPRISING SAME” (priority 2021, published 2025).
# Starred links: 1 amine or outer side, 2 acyl side, 3 side chain; linkers in the order of their positions; H or OH if unused. Positions of bridges follow the written chain, without caps; N, C: chain ends. Non-standard residues stand in square brackets, D forms with d. Residues, ends and D or L forms follow the SMILES beside them. Groups on a side chain read outwards from the residue. *: point of attachment. X3 = NC(=O)[C@H](CCCCN*)NC(=O)CC[C@H](NC(=O)CC[C@H](NC(=O)CCCCCCCCCCCCCCC(=O)O)C(=O)O)C(=O)O; X6 = NC(=O)[C@H](CCCCN*)NC(=O)CC[C@H](NC(=O)CC[C@H](NC(=O)CCCCCCCCCCCCCC(=O)O)C(=O)O)C(=O)O; X10 = NC(=O)[C@H](CCCCN*)NC(=O)CC[C@H](NC(=O)CC[C@H](NC(=O)CCCc1ccc(I)cc1)C(=O)O)C(=O)O; Trp(1-CH2CO) = O=C([C@H](Cc1cn(CC(=O)[*:3])c2ccccc12)N[*:1])[*:2]; Trp(5-OMe) = COc1ccc2[nH]cc(C[C@H](N)C(=O)O)c2c1; Butanoyl(4-(4-I-phenyl)) = O=C(CCCc1ccc(I)cc1)*; Trp(5-OH) = N[C@@H](Cc1c[nH]c2ccc(O)cc12)C(=O)O; Phe(4-COOH) = N[C@@H](Cc1ccc(C(=O)O)cc1)C(=O)O; Trp(7-aza) = N[C@@H](Cc1c[nH]c2ncccc12)C(=O)O; Piperazinyl(4-CH2COOH) = O=C(O)CN1CCN(*)CC1; γGlu = O=C(O)[C@H](CCC(=O)[*:2])N[*:1]; Aad = N[C@@H](CCCC(=O)O)C(=O)O; Ahp(2) = CCCCC[C@H](N)C(=O)O; NMeK = CN[C@@H](CCCCN)C(=O)O; Aib = CC(C)(N)C(=O)O; CO = O=C([*:1])[*:2]
# Biological target: T1, Recombinant human GhR-Fc protein (Homo sapiens, UniProt P10912)
# T1 construct: purchased R&D Systems
# Assay: Binding activity of hGhR binding peptide by surface plasmon resonance (SPR), Biacore T200, single-cycle kinetics
# Conditions: human GhR-Fc immobilized on CM5 chip, KD calculated from ka and kd
# Procedure: SPR assay was performed using Biacore T200 (cytiva: Former GE Healthcare). After the equilibration of Series S Sensor Chip CM5 (produced by cytiva: Former GE Healthcare) with Running Buffer (HBS-EP with 1% (v/v) DMSO), an EDC/NHS mixture was injected at a flow rate of 10 μL/min for 7 minutes to thereby activate the functional groups on sensor chip. Recombinant human GhR-Fc protein (R&D Systems) in 10 mM Acetate (pH4.0) was injected immobilized to at a flow rate of 5 μL/min. It took 7 minutes to immobilize the GhR on the substrate surfaces of the sensor chip. Then Ethanolamine was injected at a flow rate of 10 μL/min for 7 minutes. 1M Ethanolamine (aq.) was injected at a flow rate of 10 μL/min for 420 seconds for capping.
# Using these Peptide Samples, kinetics of peptides against human GhR-Fc protein were measured. The method adopted for sample measurement was a single-cycle kinetics method. The analysis was conducted using the evaluation software provided with Biacore T200. A DMSO correction curve obtained by solvent correction measurements was applied for the analysis. Kinetics fitting was done on the difference data obtained by subtracting the baseline data from sample measurement data. KD values were calculated based on the association rate constant (ka) and dissociation rate constant (kd).
# Furthermore, “obs. m/z [M+2H]2+” indicates the ESI-MS(+) observed value. Unless otherwise specified, this is bivalent ([M+2H]^2+).
# T1 sequence (P10912 with tags, fused parts or gaps limits assumed): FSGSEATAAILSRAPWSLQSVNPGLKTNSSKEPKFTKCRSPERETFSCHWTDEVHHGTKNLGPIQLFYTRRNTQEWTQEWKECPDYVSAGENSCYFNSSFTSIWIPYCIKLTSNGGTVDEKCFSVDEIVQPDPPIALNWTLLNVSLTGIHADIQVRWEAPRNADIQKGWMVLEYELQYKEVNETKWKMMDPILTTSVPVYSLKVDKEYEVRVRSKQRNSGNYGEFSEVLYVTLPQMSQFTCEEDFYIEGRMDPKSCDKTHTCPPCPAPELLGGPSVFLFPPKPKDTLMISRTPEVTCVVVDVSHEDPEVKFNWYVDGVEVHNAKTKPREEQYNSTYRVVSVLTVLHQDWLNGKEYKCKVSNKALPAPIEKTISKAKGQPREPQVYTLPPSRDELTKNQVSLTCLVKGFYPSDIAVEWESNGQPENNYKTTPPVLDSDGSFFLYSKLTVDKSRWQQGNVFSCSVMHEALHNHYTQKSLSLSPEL
row,Kd [nM],SMILES
1,3.07,CC(C)[C@@H]1NC(=O)[C@H](C(C)C)NC(=O)[C@@H]2CCCCNC(=O)Cn3cc(c4ccccc43)C[C@H](NC(=O)[C@H](CC(N)=O)NC(=O)[C@H](CO)NC1=O)C(=O)N[C@@H](Cc1ccc(C(=O)O)cc1)C(=O)N[C@@H](CCCC(N)=O)C(=O)N[C@@H](Cc1c[nH]c3ccc(O)cc13)C(=O)NC(C)(C)C(=O)N[C@@H](C(C)C)C(=O)N[C@H](C(=O)NCCCC[C@H](NC(=O)CC[C@H](NC(=O)CC[C@H](NC(=O)CCCc1ccc(I)cc1)C(=O)O)C(=O)O)C(N)=O)CSCC(=O)N[C@@H](Cc1ccc(C(=O)O)cc1)C(=O)N2C [Compound 5] ({CH2CO}-[Phe(4-COOH)][NMeK]VVSN[Trp(1-CH2CO)][Phe(4-COOH)][Aad](NH2)[Trp(5-OH)][Aib]VC-X10; lactam 2-7; thioether N-13)
2,2.59,CC(C)[C@@H]1NC(=O)[C@H](C(C)C)NC(=O)[C@@H]2CCCCNC(=O)Cn3cc(c4ccccc43)C[C@H](NC(=O)[C@H](CC(N)=O)NC(=O)[C@H](CO)NC1=O)C(=O)N[C@@H](Cc1ccc(C(=O)O)cc1)C(=O)N[C@@H](CCCCN)C(=O)N[C@@H](Cc1c[nH]c3ccc(O)cc13)C(=O)NC(C)(C)C(=O)N[C@@H](C(C)C)C(=O)N[C@H](C(=O)NCCCC[C@H](NC(=O)CC[C@H](NC(=O)CC[C@H](NC(=O)CCCCCCCCCCCCCCC(=O)O)C(=O)O)C(=O)O)C(N)=O)CSCC(=O)N[C@@H](Cc1ccc(O)cc1)C(=O)N2C [Compound 24] ({CH2CO}-Y[NMeK]VVSN[Trp(1-CH2CO)][Phe(4-COOH)]K[Trp(5-OH)][Aib]VC-X3; lactam 2-7; thioether N-13)
3,3.95,CC(C)[C@@H]1NC(=O)[C@H](C(C)C)NC(=O)[C@H](CCCCNC(=O)CC[C@H](NC(=O)CCCc2ccc(I)cc2)C(=O)O)N(C)C(=O)[C@H](Cc2ccc(O)cc2)NC(=O)CSC[C@@H](C(N)=O)NC(=O)[C@H](C(C)C)NC(=O)C(C)(C)NC(=O)[C@H](Cc2c[nH]c3ccc(O)cc23)NC(=O)[C@H](CCCCN)NC(=O)[C@H](Cc2ccc(C(=O)O)cc2)NC(=O)[C@H](Cc2c[nH]c3ncccc23)NC(=O)[C@H](CC(N)=O)NC(=O)[C@H](CO)NC1=O [Compound 43] ({CH2CO}-Y[NMeK]([γGlu-Butanoyl(4-(4-I-phenyl))])VVSN[Trp(7-aza)][Phe(4-COOH)]K[Trp(5-OH)][Aib]VC-NH2; thioether N-13)
4,6.31,COc1ccc2[nH]cc(C[C@@H]3NC(=O)[C@H](CC(N)=O)NC(=O)[C@H](CO)NC(=O)[C@H](C(C)C)NC(=O)[C@H](C(C)C)NC(=O)[C@H](CCCCNC(=O)CC[C@H](NC(=O)CC[C@H](NC(=O)CCCc4ccc(I)cc4)C(=O)O)C(=O)O)N(C)C(=O)[C@H](Cc4ccc(O)cc4)NC(=O)CSC[C@@H](C(=O)NCC(=O)N4CCC[C@H]4C(=O)N[C@H](CO)C(=O)N[C@H](CO)C(=O)N[C@H](CO)C(N)=O)NC(=O)[C@H](C(C)C)NC(=O)C(C)(C)NC(=O)[C@H](Cc4c[nH]c5ccc(O)cc45)NC(=O)[C@H](CCCCNC(=O)N4CCN(CC(=O)O)CC4)NC(=O)[C@H](Cc4ccc(C(=O)O)cc4)NC3=O)c2c1 [Compound 49] ({CH2CO}-Y[NMeK]([γGlu-γGlu-Butanoyl(4-(4-I-phenyl))])VVSN[Trp(5-OMe)][Phe(4-COOH)]K([CO-Piperazinyl(4-CH2COOH)])[Trp(5-OH)][Aib]VCGP[dS][dS][dS]-NH2; thioether N-13)
5,1.82,CCCCC[C@@H]1NC(=O)[C@H](Cc2ccc(C(=O)O)cc2)NC(=O)[C@@H]2Cc3cn(c4ccccc34)CC(=O)NCCCC[C@@H](C(=O)N[C@@H](C(C)C)C(=O)N[C@@H](C(C)C)C(=O)N[C@@H](CO)C(=O)N[C@@H](CC(N)=O)C(=O)N2)N(C)C(=O)[C@H](Cc2ccc(C(=O)O)cc2)NC(=O)CSC[C@@H](C(=O)NCCCC[C@H](NC(=O)CC[C@H](NC(=O)CC[C@H](NC(=O)CCCc2ccc(I)cc2)C(=O)O)C(=O)O)C(N)=O)NC(=O)[C@H](C(C)C)NC(=O)C(C)(C)NC(=O)[C@H](Cc2c[nH]c3ccc(O)cc23)NC1=O [Compound 6] ({CH2CO}-[Phe(4-COOH)][NMeK]VVSN[Trp(1-CH2CO)][Phe(4-COOH)][Ahp(2)][Trp(5-OH)][Aib]VC-X10; lactam 2-7; thioether N-13)
6,11.2,CC(C)[C@@H]1NC(=O)[C@H](C(C)C)NC(=O)[C@@H]2CCCCNC(=O)Cn3cc(c4ccccc43)C[C@H](NC(=O)[C@H](CC(N)=O)NC(=O)[C@H](CO)NC1=O)C(=O)N[C@@H](Cc1ccc(C(=O)O)cc1)C(=O)N[C@@H](CCCCNC(=O)N1CCN(CC(=O)O)CC1)C(=O)N[C@@H](Cc1c[nH]c3ccc(O)cc13)C(=O)NC(C)(C)C(=O)N[C@@H](C(C)C)C(=O)N[C@H](C(=O)NCCCC[C@H](NC(=O)CC[C@H](NC(=O)CC[C@H](NC(=O)CCCCCCCCCCCCCCC(=O)O)C(=O)O)C(=O)O)C(N)=O)CSCC(=O)N[C@@H](Cc1ccc(O)cc1)C(=O)N2C [Compound 22] ({CH2CO}-Y[NMeK]VVSN[Trp(1-CH2CO)][Phe(4-COOH)]K([CO-Piperazinyl(4-CH2COOH)])[Trp(5-OH)][Aib]VC-X3; lactam 2-7; thioether N-13)
7,3.1,CC(C)[C@@H]1NC(=O)[C@H](C(C)C)NC(=O)[C@@H]2CCCCNC(=O)Cn3cc(c4ccccc43)C[C@H](NC(=O)[C@H](CC(N)=O)NC(=O)[C@H](CO)NC1=O)C(=O)N[C@@H](Cc1ccc(C(=O)O)cc1)C(=O)N[C@@H](CCCCN)C(=O)N[C@@H](Cc1c[nH]c3ccc(O)cc13)C(=O)NC(C)(C)C(=O)N[C@@H](C(C)C)C(=O)N[C@H](C(=O)NCCCC[C@H](NC(=O)CC[C@H](NC(=O)CC[C@H](NC(=O)CCCCCCCCCCCCCC(=O)O)C(=O)O)C(=O)O)C(N)=O)CSCC(=O)N[C@@H](Cc1ccc(C(=O)O)cc1)C(=O)N2C [Compound 60] ({CH2CO}-[Phe(4-COOH)][NMeK]VVSN[Trp(1-CH2CO)][Phe(4-COOH)]K[Trp(5-OH)][Aib]VC-X6; lactam 2-7; thioether N-13)
8,1.07,COc1ccc2[nH]cc(C[C@@H]3NC(=O)[C@H](CC(N)=O)NC(=O)[C@H](CO)NC(=O)[C@H](C(C)C)NC(=O)[C@H](C(C)C)NC(=O)[C@H](CCCCNC(=O)CC[C@H](NC(=O)CCCc4ccc(I)cc4)C(=O)O)N(C)C(=O)[C@H](Cc4ccc(O)cc4)NC(=O)CSC[C@@H](C(=O)NCC(=O)N4CCC[C@H]4C(=O)N[C@H](CO)C(=O)N[C@H](CO)C(=O)N[C@H](CO)C(N)=O)NC(=O)[C@H](C(C)C)NC(=O)C(C)(C)NC(=O)[C@H](Cc4c[nH]c5ccc(O)cc45)NC(=O)[C@H](CCCCN)NC(=O)[C@H](Cc4ccc(O)cc4)NC3=O)c2c1 [Compound 46] ({CH2CO}-Y[NMeK]([γGlu-Butanoyl(4-(4-I-phenyl))])VVSN[Trp(5-OMe)]YK[Trp(5-OH)][Aib]VCGP[dS][dS][dS]-NH2; thioether N-13)
9,2.71,CC(C)[C@@H]1NC(=O)[C@H](C(C)C)NC(=O)[C@@H]2CCCCNC(=O)Cn3cc(c4ccccc43)C[C@H](NC(=O)[C@H](CC(N)=O)NC(=O)[C@H](CO)NC1=O)C(=O)N[C@@H](Cc1ccc(O)cc1)C(=O)N[C@@H](CCCCNC(=O)N1CCN(CC(=O)O)CC1)C(=O)N[C@@H](Cc1c[nH]c3ccc(O)cc13)C(=O)NC(C)(C)C(=O)N[C@@H](C(C)C)C(=O)N[C@H](C(=O)NCC(=O)N1CCC[C@H]1C(=O)N[C@H](CO)C(=O)N[C@H](CO)C(=O)N[C@H](CO)C(=O)NCCCC[C@H](NC(=O)CC[C@H](NC(=O)CC[C@H](NC(=O)CCCCCCCCCCCCCCC(=O)O)C(=O)O)C(=O)O)C(N)=O)CSCC(=O)N[C@@H](Cc1ccc(O)cc1)C(=O)N2C [Compound 28] ({CH2CO}-Y[NMeK]VVSN[Trp(1-CH2CO)]YK([CO-Piperazinyl(4-CH2COOH)])[Trp(5-OH)][Aib]VCGP[dS][dS][dS]-X3; lactam 2-7; thioether N-13)
